Measurements as given in the OPERA property sets (Mansouri et al. 2018).

Settings: not given

Compound	melting point [°C]	boiling point [°C]	ready biodegradability	log10 vapour pressure (mmHg)	log10 Koc (L/kg)	log10 biodegradation half-life (days)	log10 Henry constant (atm·m³/mol)	log10 Koa
CC(CCC(=O)O)n1nc2ccccc2n1 (stereo not drawn)	73							
FC(Cl)(Br)Br		80.3						
Cc1cnc2c(ccc3c(C)c(C)cnc32)c1C	278							
C=C1C(=O)OC2[C@H]1CC[C@H](C)[C@@H]1C=CC(=O)[C@@]21C (stereo partly drawn)	146							
Cc1cccc(N(C)C(=S)Oc2ccc3ccccc3c2)c1	111							
O=C(C=Cc1ccccc1)OCC=Cc1ccccc1	44							
COC(=O)N/N=C/c1c[n+]([O-])c2ccccc2[n+]1[O-]	240							
CC(C(=O)O)c1cccc(C(=O)c2ccccc2)c1 (stereo not drawn)	94							
CC=C(C(=O)OC)C(=O)OC			readily biodegradable					
C1CN1P1(N2CC2)=NP(N2CC2)(N2CC2)=NP(N2CC2)(N2CC2)=N1	148							
CC(=O)c1ccc(O)c(O)c1O	173							
Brc1ccc(Sc2ccc(Br)cc2)cc1	115	268						
C=CC(OC)OC		88						
CCCCC(CC)COC(=O)CCCCCCCCC(=O)OCC(CC)CCCC (stereo not drawn)	-48							
O=c1ccc2cc(Cl)ccc2o1	165							
O=c1[nH]c2ccccc2n1CCCN1CCN(C(c2ccccc2)c2ccccc2)CC1	154							
O=C(O)[C@@]1(O)CC(O)[C@H](O)[C@H](O)C1 (stereo partly drawn)	162							
CCSCC[C@H](N)C(=O)O	195							
Cc1cc(C(C)(C)C)cc(C)c1CC1=NCCN1	132							
CCCCN(CCO)CCCC	-75	229	not readily biodegradable					
CCCCCN(CCCCC)CCCCC		242						
O=c1[nH]c(=O)n([C@H]2C[C@H](O)[C@@H](CO)O2)cc1I	263							
S=C=NCc1ccccc1		243		-1.81				
c1ccc(CCCc2ccccc2)cc1	6	300						
Nc1ccc(S(=O)(=O)c2ccc(NCCO)cc2)cc1	131							

Compound	melting point [°C]	boiling point [°C]	ready biodegradability	log10 vapour pressure (mmHg)	log10 Koc (L/kg)	log10 biodegradation half-life (days)	log10 Henry constant (atm·m³/mol)	log10 Koa
Cc1cc(C)c(Cl)c(O)c1Cl	87.5							
CN(C)c1ccc(C(O)(c2ccccc2)c2ccc(N(C)C)cc2)cc1	113							
O=C=Nc1ccc([N+](=O)[O-])cc1	57							
CCCN(CCC)c1c([N+](=O)[O-])cc(S(C)(=O)=O)cc1[N+](=O)[O-]	150		not readily biodegradable	-8.03	2.92			
CCC(=O)OC(=O)CC	-45	170	readily biodegradable	0.134				
Cc1cnc2ccccc2n1	180	244						
Oc1ccc(C2(c3ccc(O)cc3)CCCCC2)cc1			not readily biodegradable					
CNc1ccccc1C(=O)O	180		readily biodegradable					
C=COCC(F)(F)F		42.5						
CCOC(=O)c1cc2ccccc2[nH]1	124							
CCC(C(=O)O)C1(O)CCC(c2ccccc2)CC1 (stereo not drawn)	157							
CC(C)(C)c1cc(C(=O)O)cc(C(C)(C)C)c1O	208							
CCCCCCCCCCCCC	-5.3	235	readily biodegradable	-1.25		1.08		
CCc1ccccc1[N+](=O)[O-]	-12.3	232	not readily biodegradable					
Cc1ccc(O)cc1[N+](=O)[O-]			not readily biodegradable					
CC(=O)Br	-96	76		2.08				
O=Cc1ccc(O)cc1	117	310	readily biodegradable	-3.95			-9.29	
Cc1coc(C)n1		108						
N#CCNCC#N	70			-2.47				
O=C(O)C1(O)c2ccccc2-c2ccc(Cl)cc21 (stereo not drawn)	152							
CC(C)C(C)C(C)(C)C (stereo not drawn)	-121	133		1.1				
COc1ccc(CO)cc1OC		298						
COC(=O)c1ccccc1N	24.5	256		-1.57				
COC(=O)Nc1ccccc1					1.73			
c1cc2c3c(c1)CCC3CCC2 (stereo not drawn)	12.8	249						

Compound	melting point [°C]	boiling point [°C]	ready biodegradability	log10 vapour pressure (mmHg)	log10 Koc (L/kg)	log10 biodegradation half-life (days)	log10 Henry constant (atm·m³/mol)	log10 Koa
CCN(Cc1c(F)cccc1Cl)c1c([N+](=O)[O-])cc(C(F)(F)F)cc1[N+](=O)[O-]	102			-6.62	4			
CC1=CC(=O)C[C@H](C)C1		208						
Clc1ccc(-c2cccc(Cl)c2Cl)c(Cl)c1							-3.85	
CC(C)CCOC(=O)C(C)C		168						
C1CSCCS1	112	200		-0.0969				
CNC(=O)ON=C(CSC)C(C)(C)C	57			-3.77				
O=P(OC(CCl)CCl)(OC(CCl)CCl)OC(CCl)CCl	27		not readily biodegradable					
CCCNC		62						
CCOC(=O)CCC(C)CC (stereo not drawn)		180						
Cc1c(CN2CCOC(c3ccccc3)C2C)c(=O)n(-c2ccccc2)n1C (stereo not drawn)	150							
CCCCC(=O)c1ccc(C)cc1	-2	256						
CC(C)(C)C	-16.4	9.5		3.11				
ClC(Cl)=C(Cl)C(Cl)(Cl)Cl	-72.9	210		-0.613				
Fc1c(F)c(F)c(Cl)c(F)c1F		118		1.25				
O=c1nn[nH]c2ccccc12	217							
CC(=O)OC1CCC(C(C)(C)C)CC1 (stereo not drawn)	-50			-2.12				
C[C@H](O)CCc1ccccc1		239						
CC=NNc1ccc([N+](=O)[O-])cc1[N+](=O)[O-]	166							
C=C1CC[C@@]2(O)[C@H]3Cc4ccc(O)c5c4[C@@]2(CCN3CC2CC2)[C@H]1O5	189							
c1cc2c3c(c1)ccc1ccc4cccc-2c4c13						2.54		
O=CN1CCOCC1	21	239						
CCC(C)Cc1ccccc1 (stereo not drawn)		195						
FC(F)(F)C(Cl)(Cl)C(Cl)(Cl)C(F)(F)F	83.5	131						
C[C@]12CC[C@H](O)C[C@H]1CC[C@@H]1[C@@H]2[C@H](O)C[C@]2(C)[C@@H](c3ccc(=O)oc3)CC[C@]12O	254							
Clc1cc2cccc(Cl)c2c(Cl)c1Cl								8.65

Compound	melting point [°C]	boiling point [°C]	ready biodegradability	log10 vapour pressure (mmHg)	log10 Koc (L/kg)	log10 biodegradation half-life (days)	log10 Henry constant (atm·m³/mol)	log10 Koa
Cc1cccc(C)c1NC(=O)c1ccc[nH]c1=O	266							
CCCCN=C=O		115		1.25				
Cc1c(C)c(C)c(C(=O)O)c(C)c1C	210							
Nc1cc(-c2ccccc2)ccc1O	200							
C=CC(=O)OCC(CC)CC	-70			0.23				
CN(C)c1ccccc1	2.5	193	not readily biodegradable	-0.155	2.26			
O=[N+]([O-])c1cccc2ncccc12	74							
O=[N+]([O-])c1ccc(S(=O)(=O)O)cc1			not readily biodegradable					
CC(=O)c1ccco1	33	175						
CC(C)NC(=O)COC(=O)c1ccccc1	130							
CCCCC(=O)O[C@]1(C(=O)CO)CC[C@H]2[C@@H]3CCC4=CC(=O)C=C[C@]4(C)[C@H]3[C@@H](O)C[C@@]21C	212							
C=C(C)CC(C)(C)C	-93.5	101		1.65				
CC(C)(C)c1cc(Cn2c(=O)n(Cc3cc(C(C)(C)C)c(O)c(C(C)(C)C)c3)c(=O)n(Cc3cc(C(C)(C)C)c(O)c(C(C)(C)C)c3)c2=O)cc(C(C)(C)C)c1O			not readily biodegradable					
C=CCOCCC		91		1.78				
Clc1cc(Cl)c(C(Cl)Cl)cc1Cl		280						
CCN(CC)C(=O)C1CN2CCc3cc(OC)c(OC)cc3C2CC1OC(C)=O (stereo not drawn)	131							
C=CCNC(N)=O	85							
COc1cc(C(=O)O)cc(OC)c1OC	172							
C=COC(C)=O	-93.2	72.5	readily biodegradable	1.96				
Oc1c(C2CCCCC2)cccc1C1CCCCC1			not readily biodegradable					
Cc1ccc(O)c(-n2n3c4ccccc4n23)c1			not readily biodegradable					
O=C1CCCC1C1CCCC1 (stereo not drawn)	-13	232						
Cc1cccc(Br)c1C		214						
Nc1ccc([N+](=O)[O-])cc1O	208							
CC(C)C(C)(C)O	-14	118		0.505				

Compound	melting point [°C]	boiling point [°C]	ready biodegradability	log10 vapour pressure (mmHg)	log10 Koc (L/kg)	log10 biodegradation half-life (days)	log10 Henry constant (atm·m³/mol)	log10 Koa
CN(C(=O)C(Cl)Cl)c1ccc(O)cc1	175							
C[C@@H]1CCC[C@H](C)N1		127	not readily biodegradable					
C1=CC2CCC1C2	45	96		1.59				
ON=Cc1ccccc1O	57							
CCCCCCCC/C=C\CCCCCCCC(=O)OCCCC	-26.5							
CCC(=O)OCCc1ccccc1		238						
Cc1cccc2c1ccc1cc(C(C)C)ccc12	101	390						
Cc1cc(OC(=O)N(C)C)n(-c2ccccc2)n1	50							
CCCC(C)OC(C)=O (stereo not drawn)	-100	130						
CO[Si](C)(OC)OC		102						
ClC1c2ccccc2CCc2ccccc21	106							
CCCCCCCCCCOc1c(OC)cc(C(N)=O)cc1OC	122							
CCCCCC(CC)CC		166						
C=CCCCCCCCCO		236						
CNC(=O)Nc1cccc(Cl)c1					1.93			
CCOc1ccccc1F	-16.7	171						
Cc1coc2ccccc2c1=O	68							
c1ccc2nsnc2c1	43	203						
Cc1cccc(N)c1N	63.5	255		-3.26				
O=C1c2ccccc2C(=O)c2c1cccc2S(=O)(=O)O			not readily biodegradable					
CC1CC(C)CC(C)C1 (mixture of isomers)		141						

Same assay, conditions: fish

Compound	log10 biotransformation half-life (days)	log10 BCF
CCCCCCCCCCCCC	1.03	
CCc1ccccc1[N+](=O)[O-]	-0.56	1.11
Cc1ccc(O)cc1[N+](=O)[O-]	-0.8	1
Clc1ccc(-c2cccc(Cl)c2Cl)c(Cl)c1	2.62	
O=P(OC(CCl)CCl)(OC(CCl)CCl)OC(CCl)CCl	-0.52	1.08
CN(C)c1ccccc1	-0.96	0.9
C=C(C)CC(C)(C)C	0.12	2.78
Oc1c(C2CCCCC2)cccc1C1CCCCC1	0.2	3.02
Clc1cc(Cl)c2cc(Cl)ccc2c1		4.43
C[C@@H]1CCC[C@H](C)N1		0.7
